Assay results as given in patent publication US6680336B2, “Cyclic AMP-specific phosphodiesterase inhibitors” (ICOS Corporation, priority 1999, dated 2004).
Where two headings read alike, the source gives them in different places.

Assays:
[1] = biological target: T1, recombinant human PDE4; test: PDE4 inhibition, charcoal separation [32P]cAMP phosphodiesterase assay; format: biochemical
T1 construct: PDE4 IC50; other: human recombinant PDE4
Experimental: The compounds of structural formula (II) were tested for an ability to inhibit PDE4. The ability of a compound to inhibit PDE4 activity is related to the IC50 value for the compound, i.e., the concentration of inhibitor required for 50% inhibition of enzyme activity. The IC50 value for compounds of structural formula (II) were determined using recombinant human PDE4.
Recombinant production of human PDE1B, PDE2, PDE4A, PDE4B, PDE4C, PDE4D, PDE5, and PDE7 was carried out similarly to that described in Example 7 of U.S. Pat. No. 5,702,936, incorporated herein by reference, except that the yeast transformation vector employed, which is derived from the basic ADH2 plasmid described in Price et al., Methods in Enzymology, 185, pp. 308-318 (1990), incorporated yeast ADH2 promoter and terminator sequences and the Saccharomyces cerevisiae host was the protease-deficient strain BJ2-54 deposited on Aug. 31, 1998 with the American Type Culture Collection, Manassas, Va., under accession number ATCC 74465. Transformed host cells were grown in 2×SC-leu medium, pH 6.2, with trace metals, and vitamins. After 24 hours, YEP medium-containing glycerol was added to a final concentration of 2×YET/3% glycerol. Approximately 24 hr later, cells were harvested, washed, and stored at −70° C.
Phosphodiesterase activity of the preparations was determined as follows. PDE assays utilizing a charcoal separation technique were performed essentially as described in Loughney et al. (1996). In this assay, PDE activity converts [32P]cAMP or [32P]cGMP to the corresponding [32P]5′-AMP or [32P]5′-GMP in proportion to the amount of PDE activity present. The [32P]5′-AMP or [32P]5′-GMP then was quantitatively converted to free [32P]phosphate and unlabeled adenosine or guanosine by the action of snake venom 5′-nucleotidase. […] The assay was performed at 30° C. in a 100 μL reaction mixture containing (final concentrations) 40 mM Tris HCl (pH 8.0), 1 μM ZnSO4, 5 mM MgCl2, and 0.1 mg/mL bovine serum albumin (BSA). Alternatively, in assays assessing PDE1-specific activity, incubation mixtures further incorporated the use of 0.1 mM CaCl2 and 10 μg/mL calmodulin. PDE enzyme was present in quantities that yield <30% total hydrolysis of substrate (linear assay conditions). The assay was initiated by addition of substrate (1 mM [32P]cAMP or cGMP), and the mixture was incubated for 12 minutes. Seventy-five (75) μg of Crotalus atrox venom then was added, and the incubation was continued for 3 minutes (15 minutes total). The reaction was stopped by addition of 200 μL of activated charcoal (25 mg/mL suspension in 0.1 M […], pH 4). After centrifugation (750×g for 3 minutes) to sediment the charcoal, a sample of the supernatant was taken for radioactivity determination in a scintillation counter and the PDE activity was calculated.
Inhibitor analyses were performed similarly to the method described in Loughney et al., J. Biol. Chem., 271, pp. 796-806 (1996), except both cGMP and cAMP were used, and substrate concentrations were kept below 32 nM, which is far below the Km of the tested PDEs.

[2] = tested on: TNFα secretion in human peripheral blood lymphocytes; test: Lipopolysaccharide-stimulated TNFα release from human peripheral blood lymphocytes; format: cell-based; conditions: for EC50: Lymphocyte, LPS-stimulated TNFα release from human PBL
Experimental: The compounds of structural formula (II) also were tested for an ability to reduce TNFα secretion in human peripheral blood lymphocytes. The ability to reduce TNFα secretion is related to the EC50 values i.e., the effective concentration pf the compound capable of inhibiting 50% of the total TNFα).
To assess the ability of a compound to reduce TNFα secretion in human peripheral blood lymphocytes (PBL), the following tests were performed.
Heparinized blood (approximately 30 mL) drawn from human volunteers was mixed 1:1 with Dulbecco's modified phosphate-buffered saline. This mixture was mixed 1:1 with HISTOPAQUE® and centrifuged at 1,500 rpm at room temperature without braking in the swinging bucket of a Beckman model TJ6 centrifuge. Erythrocytes were centrifuged to the bottom of the tubes, and serum remained at the surface of the tubes. A layer containing lymphocytes sedimented between the serum and HISTOPAQUE® layers, and was removed by aspiration to a fresh tube. The cells were quantified and adjusted to […] and a 100 μL aliquot is placed into the wells of a 96 well plate. Test compounds and RPMI media (Gibco/BRL Life Sciences) are added to each of the wells 15 minutes prior to addition of bacterial LPS ([…]). The mixture was allowed to incubate for 20 hours at 37° C. in a humidified chamber. The cells then were separated by centrifuging at 800 rpm for 5 minutes at room temperature. An aliquot of 180 μL of supernatant was transferred to a new plate for determination of TNFα concentration. TNFα protein in the cell supernatant fluids was measured using a commercially available enzyme-linked immunosorbent assay (ELISA) (CYTOSCREEN® Immunoassay Kit from Biosource International).
The cell-based assay provided the following results for various pyrrolidine compounds of the present invention. The EC50 values (i.e., effective concentration of the compound capable of inhibiting 50% of the total TNFα) illustrate the ability of the present compounds to inhibit LPS-stimulated TNFα release from human PBL.

[3] = tested on: female Balb/c mice; test: Combined mouse endotoxin-stimulated TNFα release and locomotor activity assay (mobility); format: in vivo
Experimental: The purpose of this study was to determine the efficacy of PDE4 inhibitors in vivo in an LPS mouse model together with a determination with respect to central nervous system (CNS) side-effects manifested by a decrease in spontaneous mobility.
The test animals were female Balb/c mice, having an average weight of about 20 g. […] Individual dose volumes (about 150 μL) were adjusted based on the body weights measured. One hour later, 5 mg/kQ LPS in a final volume of 200 μL was injected via the tail vein to each animal. Ninety minutes following the LPS treatment, the animals were bled and serum samples were collected before being stored at −70° C. until assayed.
Movement of the X-Y plane, or rearing up on the hind legs, was quantified by counting the number of “light-beam” crosses per unit of time. A decrease in the number of activity events is directly proportional to the mobility or immobilization of the animal. The quantitative scoring correlated well with the subjective measurements described above.
The following table summarizes the mouse locomotor activity assay as mobility (% activity) obtained by the above-described method: […]

[4] = in vivo; cited from earlier work
[5] = tested on: recombinant human PDE4; conditions: reported value; read-out: IC50 with respect to inhibiting recombinant human PDE4; cited from earlier work

Structure (SMILES) | IC50 [1] [nM] | EC50 [2] [nM] | Mobility (% activity at 50 mg/kg dose) [3] [%] | Emetic potential relative to the (+)-enantiomer [4] | IC50 [5] [nM] | LPS-induced TNFα secretion from human lymphocytes ([2]; preliminary experiments)
CNC(C)[C@]1(C)CN(C(=O)OC)C[C@H]1c1ccc(OC)c(OC2CCCC2)c1 (mixture of isomers) [Example 19, Methyl (3S,4S)-4-(3-cyclopentyloxy-4-methoxyphenyl)-3-methyl-3-[(methylamino)ethylpyrrolidine Carboxylate] | 51.7 | 59 | 145 | – | – | –
COc1ccc([C@@H]2CNC(=O)C2)cc1OC1CCCC1 (single isomer, unassigned) [(−)-enantiomer of rolipram] | – | – | – | about ten-fold more emetic than the (+)-enantiomer | – | –
COc1ccc([C@@H]2CN(Cc3ccccc3)C[C@@]2(C)C(C)N)cc1OC1CCCC1 (single isomer, unassigned) [Example 9] | 57.5 | 609 | 55 | – | – | –
COc1ccc(C2CN(Cc3ccccc3)C[C@@]2(C)C(C)N)cc1OC1CCCC1 (stereo partly shown) [Example 20] | 22 | 198 | 93 | – | – | –
COc1ccc(C2CNC(=O)C2)cc1OC1CCCC1 (stereo not shown) [Rolipram, reference compound] | – | – | – | – | ~200 | inhibit LPS-induced TNFα secretion from human lymphocytes in a dose-dependent fashion
COC(=O)N1CC(c2ccc(OC)c(OC3CCCC3)c2)C(C)(C(C)=O)C1 (stereo not shown) [structural formula (I)] | – | – | – | – | ~2 | –
